Test results from ChEMBL document CHEMBL5291721, “A preclinical secondary pharmacology resource illuminates target-adverse drug reaction associations of marketed drugs” (Nat Commun, 2023).
“And” between values parts separate entries of the source, which are not always exact repeats. Equal values may be shown once.

What was measured:
[1] = target: Beta-2 adrenergic receptor (Homo sapiens, UniProt P07550); format: functional, cell-based
[2] = target: Voltage-dependent L-type calcium channel subunit alpha-1C (Rattus norvegicus, UniProt P22002); format: functional
Chain of Voltage-dependent L-type calcium channel subunit alpha-1C (P22002 whole entry): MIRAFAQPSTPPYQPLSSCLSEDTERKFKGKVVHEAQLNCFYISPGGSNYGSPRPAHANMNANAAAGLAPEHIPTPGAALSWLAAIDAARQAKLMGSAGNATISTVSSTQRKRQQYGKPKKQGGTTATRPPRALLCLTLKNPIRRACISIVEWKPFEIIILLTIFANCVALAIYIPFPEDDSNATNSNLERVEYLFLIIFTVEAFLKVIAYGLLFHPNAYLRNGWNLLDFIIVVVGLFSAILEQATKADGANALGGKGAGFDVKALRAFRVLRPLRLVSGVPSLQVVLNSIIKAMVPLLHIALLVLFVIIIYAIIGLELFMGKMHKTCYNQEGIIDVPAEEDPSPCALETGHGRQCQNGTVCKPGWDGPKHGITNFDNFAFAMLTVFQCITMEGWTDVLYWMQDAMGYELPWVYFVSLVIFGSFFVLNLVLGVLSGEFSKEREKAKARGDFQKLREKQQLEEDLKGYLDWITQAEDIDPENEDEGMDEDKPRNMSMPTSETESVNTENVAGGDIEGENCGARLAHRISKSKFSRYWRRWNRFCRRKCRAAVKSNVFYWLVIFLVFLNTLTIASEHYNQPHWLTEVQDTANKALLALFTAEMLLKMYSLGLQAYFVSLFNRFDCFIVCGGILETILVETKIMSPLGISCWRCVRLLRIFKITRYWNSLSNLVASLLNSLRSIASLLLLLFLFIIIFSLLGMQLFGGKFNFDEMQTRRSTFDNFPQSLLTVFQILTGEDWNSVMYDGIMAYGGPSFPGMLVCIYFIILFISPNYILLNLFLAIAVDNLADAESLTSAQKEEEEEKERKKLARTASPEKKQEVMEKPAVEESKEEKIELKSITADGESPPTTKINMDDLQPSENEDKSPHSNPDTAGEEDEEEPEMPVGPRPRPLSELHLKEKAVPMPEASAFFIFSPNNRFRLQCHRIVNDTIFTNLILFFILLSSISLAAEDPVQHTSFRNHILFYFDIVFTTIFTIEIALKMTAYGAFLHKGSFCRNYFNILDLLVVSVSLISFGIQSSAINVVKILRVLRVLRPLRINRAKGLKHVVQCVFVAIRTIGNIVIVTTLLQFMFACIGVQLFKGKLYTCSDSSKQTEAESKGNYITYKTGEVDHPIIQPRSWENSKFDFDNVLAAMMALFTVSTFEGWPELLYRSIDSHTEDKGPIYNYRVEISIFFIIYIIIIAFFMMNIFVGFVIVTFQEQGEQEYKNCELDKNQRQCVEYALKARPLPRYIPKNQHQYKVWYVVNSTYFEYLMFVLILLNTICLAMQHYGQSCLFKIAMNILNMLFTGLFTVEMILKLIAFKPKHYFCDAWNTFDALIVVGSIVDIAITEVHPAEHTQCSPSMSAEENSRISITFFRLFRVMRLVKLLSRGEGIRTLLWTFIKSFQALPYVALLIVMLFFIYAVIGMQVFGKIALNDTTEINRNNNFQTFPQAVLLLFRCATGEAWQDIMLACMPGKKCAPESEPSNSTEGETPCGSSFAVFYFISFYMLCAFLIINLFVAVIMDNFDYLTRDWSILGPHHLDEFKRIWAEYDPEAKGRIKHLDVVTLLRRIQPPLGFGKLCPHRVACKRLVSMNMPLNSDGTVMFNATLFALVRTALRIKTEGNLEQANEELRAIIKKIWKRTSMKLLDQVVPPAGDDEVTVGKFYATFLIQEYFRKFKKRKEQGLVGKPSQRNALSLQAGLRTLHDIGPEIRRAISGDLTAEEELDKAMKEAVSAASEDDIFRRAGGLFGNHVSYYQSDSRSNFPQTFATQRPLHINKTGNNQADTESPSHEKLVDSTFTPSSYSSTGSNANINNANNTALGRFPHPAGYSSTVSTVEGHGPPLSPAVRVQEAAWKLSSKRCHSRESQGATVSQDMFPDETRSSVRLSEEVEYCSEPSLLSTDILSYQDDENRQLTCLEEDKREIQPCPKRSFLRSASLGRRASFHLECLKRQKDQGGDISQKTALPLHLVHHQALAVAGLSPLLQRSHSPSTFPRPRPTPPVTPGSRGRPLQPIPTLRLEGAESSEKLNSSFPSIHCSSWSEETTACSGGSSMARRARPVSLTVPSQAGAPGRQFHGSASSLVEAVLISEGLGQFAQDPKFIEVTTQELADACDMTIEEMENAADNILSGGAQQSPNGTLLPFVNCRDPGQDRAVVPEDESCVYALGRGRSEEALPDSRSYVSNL

[3] = target: Gamma-aminobutyric acid receptor subunit alpha-1 (Rattus norvegicus, UniProt P62813)
[4] = target: 5-hydroxytryptamine receptor 2A (Homo sapiens, UniProt P28223); format: functional, cell-based
Chain of 5-hydroxytryptamine receptor 2A (P28223 whole entry): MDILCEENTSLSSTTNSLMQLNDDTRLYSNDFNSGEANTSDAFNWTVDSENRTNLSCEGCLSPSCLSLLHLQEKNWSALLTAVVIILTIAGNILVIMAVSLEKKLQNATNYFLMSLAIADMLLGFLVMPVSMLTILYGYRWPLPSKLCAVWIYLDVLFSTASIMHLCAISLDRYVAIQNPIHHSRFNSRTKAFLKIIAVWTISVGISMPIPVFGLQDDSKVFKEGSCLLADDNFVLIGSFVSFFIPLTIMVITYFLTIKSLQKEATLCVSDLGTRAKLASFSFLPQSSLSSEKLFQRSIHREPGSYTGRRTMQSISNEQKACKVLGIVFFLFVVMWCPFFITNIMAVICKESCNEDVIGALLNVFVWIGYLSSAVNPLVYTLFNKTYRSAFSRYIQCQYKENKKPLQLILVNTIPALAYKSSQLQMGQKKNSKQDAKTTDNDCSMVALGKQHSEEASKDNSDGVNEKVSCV

[5] = target: T1, Progesterone receptor (Homo sapiens, UniProt P06401); format: functional
T1 sequence (P06401 whole entry): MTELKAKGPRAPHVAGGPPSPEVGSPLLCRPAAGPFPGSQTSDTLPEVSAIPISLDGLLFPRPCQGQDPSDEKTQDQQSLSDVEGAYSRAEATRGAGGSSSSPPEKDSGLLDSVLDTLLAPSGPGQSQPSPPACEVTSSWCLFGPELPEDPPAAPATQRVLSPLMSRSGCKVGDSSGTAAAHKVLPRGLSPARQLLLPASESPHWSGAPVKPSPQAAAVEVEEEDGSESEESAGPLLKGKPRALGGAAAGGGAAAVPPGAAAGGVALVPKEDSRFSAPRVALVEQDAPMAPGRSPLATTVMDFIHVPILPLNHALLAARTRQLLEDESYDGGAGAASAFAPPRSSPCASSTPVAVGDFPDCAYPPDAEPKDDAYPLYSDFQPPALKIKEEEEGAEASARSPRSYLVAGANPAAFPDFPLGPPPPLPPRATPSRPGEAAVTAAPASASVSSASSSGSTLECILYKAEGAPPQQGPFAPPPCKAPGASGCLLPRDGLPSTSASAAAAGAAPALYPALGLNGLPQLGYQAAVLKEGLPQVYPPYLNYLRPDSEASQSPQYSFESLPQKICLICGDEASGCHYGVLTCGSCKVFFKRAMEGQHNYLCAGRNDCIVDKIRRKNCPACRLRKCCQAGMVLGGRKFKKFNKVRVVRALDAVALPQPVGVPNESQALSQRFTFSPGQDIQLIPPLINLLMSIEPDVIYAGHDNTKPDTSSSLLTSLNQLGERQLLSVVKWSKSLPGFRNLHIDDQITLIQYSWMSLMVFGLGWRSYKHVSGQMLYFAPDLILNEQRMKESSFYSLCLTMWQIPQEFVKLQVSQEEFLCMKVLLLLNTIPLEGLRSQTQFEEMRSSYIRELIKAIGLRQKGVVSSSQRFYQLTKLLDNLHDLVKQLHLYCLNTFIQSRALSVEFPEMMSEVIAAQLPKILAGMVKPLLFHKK

[6] = target: T2, Peroxisome proliferator-activated receptor gamma (Homo sapiens, UniProt P37231); format: functional
T2 sequence (P37231 whole entry): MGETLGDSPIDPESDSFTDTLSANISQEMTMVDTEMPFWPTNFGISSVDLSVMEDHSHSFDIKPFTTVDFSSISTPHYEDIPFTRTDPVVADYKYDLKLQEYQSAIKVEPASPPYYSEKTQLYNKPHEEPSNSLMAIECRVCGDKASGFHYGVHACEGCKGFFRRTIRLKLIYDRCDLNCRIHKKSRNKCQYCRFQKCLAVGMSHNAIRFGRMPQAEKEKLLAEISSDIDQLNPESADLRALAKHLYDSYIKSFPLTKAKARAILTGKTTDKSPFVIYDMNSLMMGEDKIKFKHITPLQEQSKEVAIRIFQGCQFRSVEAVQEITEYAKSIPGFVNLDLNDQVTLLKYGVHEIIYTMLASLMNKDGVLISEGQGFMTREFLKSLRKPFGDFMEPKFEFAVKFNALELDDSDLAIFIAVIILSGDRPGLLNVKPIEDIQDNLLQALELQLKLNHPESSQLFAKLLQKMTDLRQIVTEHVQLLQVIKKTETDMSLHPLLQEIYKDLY

[7] = target: Estrogen receptor beta (Homo sapiens, UniProt Q92731)
Chain of Estrogen receptor beta (Q92731 whole entry): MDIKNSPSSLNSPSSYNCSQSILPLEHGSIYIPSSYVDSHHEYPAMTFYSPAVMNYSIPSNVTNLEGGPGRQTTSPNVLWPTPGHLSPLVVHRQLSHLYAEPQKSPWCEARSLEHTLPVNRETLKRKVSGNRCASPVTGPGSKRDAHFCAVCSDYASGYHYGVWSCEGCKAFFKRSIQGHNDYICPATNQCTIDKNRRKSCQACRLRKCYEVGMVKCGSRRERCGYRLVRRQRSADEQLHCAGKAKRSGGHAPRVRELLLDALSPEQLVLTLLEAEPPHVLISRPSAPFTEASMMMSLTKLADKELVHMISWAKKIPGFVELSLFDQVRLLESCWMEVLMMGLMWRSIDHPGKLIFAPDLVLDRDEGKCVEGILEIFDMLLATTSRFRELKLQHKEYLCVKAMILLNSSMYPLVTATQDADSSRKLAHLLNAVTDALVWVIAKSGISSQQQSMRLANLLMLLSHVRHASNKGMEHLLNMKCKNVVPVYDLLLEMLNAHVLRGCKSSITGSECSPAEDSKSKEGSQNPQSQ

[8] = target: Glucagon receptor (Homo sapiens, UniProt P47871)
Chain of Glucagon receptor (P47871 whole entry): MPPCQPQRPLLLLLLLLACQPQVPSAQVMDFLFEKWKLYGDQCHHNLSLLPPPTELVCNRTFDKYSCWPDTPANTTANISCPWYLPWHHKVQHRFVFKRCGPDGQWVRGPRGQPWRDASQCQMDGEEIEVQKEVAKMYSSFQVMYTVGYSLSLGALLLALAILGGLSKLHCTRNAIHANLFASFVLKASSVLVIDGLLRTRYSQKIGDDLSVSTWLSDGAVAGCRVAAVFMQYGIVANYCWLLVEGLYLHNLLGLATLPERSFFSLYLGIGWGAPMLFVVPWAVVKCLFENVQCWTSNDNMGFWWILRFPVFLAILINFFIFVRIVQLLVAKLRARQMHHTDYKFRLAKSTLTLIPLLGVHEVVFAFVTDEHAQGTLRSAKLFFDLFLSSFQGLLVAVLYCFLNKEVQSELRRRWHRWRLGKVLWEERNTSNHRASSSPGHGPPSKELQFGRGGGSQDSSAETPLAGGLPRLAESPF

[9] = target: T3, Amine oxidase [flavin-containing] A (Homo sapiens, UniProt P21397); format: functional
T3 sequence (P21397 whole entry): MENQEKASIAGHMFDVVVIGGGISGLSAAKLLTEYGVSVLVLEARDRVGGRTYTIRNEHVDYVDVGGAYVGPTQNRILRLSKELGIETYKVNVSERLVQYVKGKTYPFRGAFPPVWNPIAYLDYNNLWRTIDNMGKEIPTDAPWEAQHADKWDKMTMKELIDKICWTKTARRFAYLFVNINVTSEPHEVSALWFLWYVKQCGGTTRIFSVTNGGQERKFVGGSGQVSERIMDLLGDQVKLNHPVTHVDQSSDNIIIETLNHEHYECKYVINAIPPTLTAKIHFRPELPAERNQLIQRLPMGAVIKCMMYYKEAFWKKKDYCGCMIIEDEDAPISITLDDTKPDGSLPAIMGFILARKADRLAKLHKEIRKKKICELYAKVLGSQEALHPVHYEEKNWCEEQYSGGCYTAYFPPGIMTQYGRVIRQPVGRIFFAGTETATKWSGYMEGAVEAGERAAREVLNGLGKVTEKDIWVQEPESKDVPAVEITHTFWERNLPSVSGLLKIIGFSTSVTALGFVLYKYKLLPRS

[10] = target: Sodium-dependent dopamine transporter (Homo sapiens, UniProt Q01959)
Chain of Sodium-dependent dopamine transporter (Q01959 whole entry): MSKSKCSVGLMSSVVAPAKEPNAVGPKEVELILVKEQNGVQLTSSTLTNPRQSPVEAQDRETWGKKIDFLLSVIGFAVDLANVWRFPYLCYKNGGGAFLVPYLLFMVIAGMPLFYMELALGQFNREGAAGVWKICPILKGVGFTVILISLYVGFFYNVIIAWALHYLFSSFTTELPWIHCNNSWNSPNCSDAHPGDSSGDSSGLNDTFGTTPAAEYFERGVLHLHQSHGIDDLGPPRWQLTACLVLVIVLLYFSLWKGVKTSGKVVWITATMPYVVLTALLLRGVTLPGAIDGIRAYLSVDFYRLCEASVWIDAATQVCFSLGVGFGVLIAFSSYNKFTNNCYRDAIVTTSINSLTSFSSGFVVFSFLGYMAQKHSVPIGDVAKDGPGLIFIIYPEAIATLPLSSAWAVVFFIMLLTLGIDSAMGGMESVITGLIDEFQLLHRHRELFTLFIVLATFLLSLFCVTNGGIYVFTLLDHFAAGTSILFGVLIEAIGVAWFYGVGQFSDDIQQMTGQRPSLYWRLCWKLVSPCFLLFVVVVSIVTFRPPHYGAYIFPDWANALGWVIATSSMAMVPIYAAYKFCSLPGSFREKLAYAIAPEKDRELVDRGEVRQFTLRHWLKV

[11] = target: T4, Alpha-2B adrenergic receptor (Homo sapiens, UniProt P18089)
T4 sequence (P18089 whole entry): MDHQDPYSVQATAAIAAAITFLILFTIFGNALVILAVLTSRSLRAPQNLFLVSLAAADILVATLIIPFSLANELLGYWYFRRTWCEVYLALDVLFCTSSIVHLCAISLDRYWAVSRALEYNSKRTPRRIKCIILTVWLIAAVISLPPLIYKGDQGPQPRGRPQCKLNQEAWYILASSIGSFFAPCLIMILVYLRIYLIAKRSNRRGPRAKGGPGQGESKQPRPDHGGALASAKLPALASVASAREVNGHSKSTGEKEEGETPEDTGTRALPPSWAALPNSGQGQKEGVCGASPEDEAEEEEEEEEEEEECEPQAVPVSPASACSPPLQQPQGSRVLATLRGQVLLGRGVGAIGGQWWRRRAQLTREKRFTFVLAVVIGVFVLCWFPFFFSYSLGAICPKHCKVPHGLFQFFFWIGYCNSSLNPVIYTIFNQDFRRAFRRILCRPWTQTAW
Further: assay procedure not described here.

Chain of Beta-2 adrenergic receptor (P07550 whole entry): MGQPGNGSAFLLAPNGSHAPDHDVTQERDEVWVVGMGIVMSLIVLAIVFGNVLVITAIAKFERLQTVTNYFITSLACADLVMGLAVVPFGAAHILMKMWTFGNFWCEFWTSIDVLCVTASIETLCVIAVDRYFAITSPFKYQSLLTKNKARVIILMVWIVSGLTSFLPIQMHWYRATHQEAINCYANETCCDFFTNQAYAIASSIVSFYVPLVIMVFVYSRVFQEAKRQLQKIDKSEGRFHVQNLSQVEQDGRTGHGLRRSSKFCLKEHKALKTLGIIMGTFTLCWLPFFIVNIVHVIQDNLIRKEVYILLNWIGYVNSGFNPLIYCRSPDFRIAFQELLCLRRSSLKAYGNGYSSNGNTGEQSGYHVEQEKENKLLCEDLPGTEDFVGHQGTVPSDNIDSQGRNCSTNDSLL

| SMILES | AC50 [1] | AC50 [2] | AC50 [3] | AC50 [4] | AC50 [5] | AC50 [6] | AC50 [7] | AC50 [8] | AC50 [9] | AC50 [10] | AC50 [11] |
| --- | --- | --- | --- | --- | --- | --- | --- | --- | --- | --- | --- |
| CO/N=C(\C(=O)N[C@@H]1C(=O)N2C(C(=O)[O-])=C(C[N+]3(C)CCCC3)CS[C@H]12)c1csc(N)n1 | > 300 µM | > 30 µM | > 30 µM | > 30 µM | > 30 µM and 140 µM | > 300 µM | – | – | – | – | – |
| Nc1nc(N)c2nc(-c3ccccc3)c(N)nc2n1 | > 30 µM | > 30 µM | > 30 µM | – | – | – | > 30 µM | > 30 µM | > 30 µM | > 30 µM | – |
| C[C@H]1O[C@H](O[C@H]2[C@H](O)[C@@H](O)[C@@H](O[C@H]3[C@H](O)[C@@H](O)C(O)O[C@@H]3CO)O[C@@H]2CO)[C@H](O)[C@@H](O)[C@@H]1N[C@H]1C=C(CO)[C@@H](O)[C@H](O)[C@H]1O (stereo partly specified) [ACARBOSE] | > 30 µM | > 10 µM | – | – | > 30 µM | – | > 30 µM | > 30 µM | > 30 µM | > 30 µM | – |
| CC(=O)c1ccc2c(c1)N(CCCN1CCN(CCO)CC1)c1ccccc1S2 [ACETOPHENAZINE] | > 30 µM | – | – | 0.87 µM | > 3 µM | > 30 µM | – | – | – | – | 0.056 µM |
| Oc1ncnc2[nH]ncc12 [ALLOPURINOL] | > 30 µM | > 10 µM | > 10 µM | – | – | – | > 30 µM | > 30 µM | > 30 µM | > 30 µM | – |
| CC(N)Cc1ccccc1 (stereo unspecified) [AMPHETAMINE] | – | > 10 µM | > 10 µM | > 30 µM | > 30 µM | > 30 µM | > 30 µM | > 30 µM | – | – | – |
| CN1CCCC(n2nc(Cc3ccc(Cl)cc3)c3ccccc3c2=O)CC1 (stereo unspecified) [AZELASTINE] | > 30 µM | – | – | 4.6 µM | > 30 µM | > 30 µM | – | – | – | – | 3.8 µM |
| CC(C)NCC(O)COc1ccc(COCCOC(C)C)cc1 (stereo unspecified) [BISOPROLOL] | – | > 10 µM | > 10 µM | > 30 µM | – | – | > 30 µM | > 30 µM | – | – | > 10 µM |
| N[C@@H](C(=O)N[C@@H]1C(=O)N2C(C(=O)O)=C(Cl)CS[C@H]12)c1ccccc1 [CEFACLOR ANHYDROUS] | > 30 µM | – | – | > 30 µM | > 30 µM | > 30 µM | – | – | – | – | > 30 µM |
| CCC[C@@H]1C[C@@H](C(=O)N[C@@H]([C@H]2O[C@H](SC)[C@H](O)[C@@H](O)[C@H]2O)[C@H](C)Cl)N(C)C1 [CLINDAMYCIN] | > 30 µM | > 10 µM | > 10 µM | – | – | – | > 30 µM | > 30 µM | – | – | – |
| COc1cc2c(cc1OC)C(=O)C(CC1CCN(Cc3ccccc3)CC1)C2 (stereo unspecified) [DONEPEZIL] | > 30 µM | > 10 µM | > 10 µM | > 30 µM | – | – | > 30 µM | > 30 µM | – | 9.78 µM | > 10 µM |
| COC(=O)[C@@H]1CC2=CC(=O)CC[C@]2(C)[C@@]23O[C@@H]2C[C@@]2(C)[C@@H](CC[C@@]24CCC(=O)O4)[C@H]13 [EPLERENONE] | > 30 µM | > 10 µM | > 10 µM | > 30 µM | – | > 30 µM | – | > 30 µM | – | – | > 30 µM |
| CC(C)Cc1ccc(CC(=O)O)cc1 [IBUFENAC] | > 30 µM | – | – | > 30 µM | > 30 µM | > 30 µM | – | – | – | – | > 30 µM |
| CC(C)NNC(=O)c1ccncc1 [IPRONIAZID] | > 30 µM | – | – | – | > 30 µM | > 30 µM | – | – | – | – | – |
| CCN(CC)CCNC(=O)c1cc(Cl)c(N)cc1OC [METOCLOPRAMIDE] | > 30 µM | > 10 µM | > 10 µM | – | – | – | > 30 µM | > 30 µM | – | – | – |
| Cc1cccc(C)c1OCC(C)N (stereo unspecified) [MEXILETINE] | > 30 µM | – | – | – | > 30 µM | > 30 µM | – | – | – | – | – |
| NC(=O)c1ncn([C@@H]2O[C@H](CO)[C@@H](O)[C@H]2O)c1O [MIZORIBINE] | > 30 µM | – | – | > 30 µM | > 30 µM | > 30 µM | – | – | – | – | > 30 µM |
| OCCN1CCN(CCCN2c3ccccc3C=Cc3ccccc32)CC1 [OPIPRAMOL] | > 30 µM | – | – | 28 µM | > 30 µM | > 30 µM | – | – | > 30 µM | 10.9 µM | 10 µM |
| CC(C(=O)O)c1ccc(N2CC=CC2)c(Cl)c1 (stereo unspecified) [PIRPROFEN] | > 30 µM | > 10 µM | > 10 µM | > 30 µM | – | – | > 30 µM | > 30 µM | > 30 µM | > 30 µM | > 10 µM |
| CC[C@H](C)C(=O)O[C@H]1C[C@H](O)C=C2C=C[C@H](C)[C@H](CC[C@@H](O)C[C@@H](O)CC(=O)O)[C@H]21 [PRAVASTATIN] | > 30 µM | > 10 µM | > 10 µM | – | > 30 µM | > 30 µM | – | – | – | – | – |
| OCc1cc([C@@H](O)CNCCCCCCOCCOCc2c(Cl)cccc2Cl)ccc1O [VILANTEROL] | – | – | – | 23 µM | > 30 µM | > 30 µM | – | – | – | – | > 30 µM |
